Assay results published in the METLIN SMRT retention time set (Domingo-Almenara et al. 2019).

Assay: gradient 5% acetonitrile 3 min, to 50% in 2 min, to 85% in 15 min, held 3 min, 100 µL/min
Conditions: column: Zorbax Extend-C18 2.1 x 50 mm; eluents: water / acetonitrile, 0.1% formic acid
Outline: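 Pure standards were analyzed in mixtures of ~100 molecules using HPLC coupled to a quadrupole time-of-flight mass spectrometer, in both positive and negative ionization mode. Separation used a Zorbax Extend-C18 column (2.1 × 50 mm, 1.8 μm) at 100 μL/min, with water and acetonitrile each containing 0.1% formic acid. Dead and dwell volumes were 40 μL and 900 μL, and data were collected over 3 months. Retention time was read from computationally picked adduct peaks, each inspected manually.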

SMILES | RP-LC retention time
CCCOc1ccc(CNC(=O)c2nc(N3CCSCC3)c3cn(C)nc3n2)cc1 | 798 s
CCC(C)NC(=O)C1CCN(S(=O)(=O)c2cn(CC)cn2)CC1 (stereo unspecified) | 639 s
Cc1ccc(Cn2cc(-c3nc(-c4ccc(Cl)cc4)no3)ccc2=O)cc1 | 1250 s
Cc1ccc2cc(CCC(=O)NCc3ccc(N4CCOCC4)cc3)c(=O)[nH]c2c1 | 655 s
CS(=O)(=O)N1CCOc2ccc(CCC(=O)NCC3CCCO3)cc2C1 (stereo unspecified) | 666 s
O=C(CC1c2ncccc2C(=O)N1c1ccc(F)cc1)NCc1cc(F)ccc1F (stereo unspecified) | 737 s
COc1ccc(Cl)cc1NS(=O)(=O)c1c(C)sc(C)c1-c1cc(C(F)(F)F)on1 | 1220 s
O=C(Cc1ccc(F)cc1)Nc1ccc(-c2ccc3nncn3n2)cc1 | 676 s
CN(C)C(=O)C1CCN(c2nc3ccc(-c4ccccc4)nc3s2)CC1 | 888 s
CCCn1cc(-c2ccncc2)cc1C(=O)Nc1ccc(NC(C)=O)cc1 | 594 s
CCCn1nc(CNC(=O)CNC(C)=O)c2ccccc21 | 632 s
CCc1nc(-c2ccnc(N3CCCC3)c2)no1 | 616 s
c1cn(-c2ccc(-c3noc(-c4ccc5c(c4)OCO5)n3)cn2)cn1 | 853 s
COc1ccc(NC(=O)CCC2CCCN(c3cc(NC4CC4)ncn3)C2)cc1OC (stereo unspecified) | 645 s
CC(C)Cc1nc(N2CCNCC2)c(C#N)c2c1COC(C)(C)C2 | 683 s
CNC(=O)c1cnn(-c2nc(N)c3ncn([C@@H]4O[C@H](CO)C(O)C4O)c3n2)c1 (stereo partly specified) | 586 s
CCn1ncn2cc(S(=O)(=O)Nc3ccc(C)cc3)cc2c1=O | 882 s
Cc1cc2nn(CC(=O)N(C)c3ccccc3)c(=O)n2c(Nc2ccc(C)c(C)c2)n1 | 1100 s
Cc1noc(-c2ccnc(-n3ncc(C(=O)NC4CCCC4)c3C)c2)n1 | 836 s
O=C(NCC1CCCO1)c1cc(S(=O)(=O)N2CCCCCC2)ccc1Cl (stereo unspecified) | 842 s
COc1ccc(-c2ncc3c(n2)CCN(C(=O)Nc2cccc(Cl)c2C)C3)cc1 | 1170 s
CC(C)Cc1ccc(S(=O)(=O)N2CCC3(CC2)c2nccn2CCN3C)cc1 | 777 s
Fc1cc(F)cc(-c2nnc(Cc3nc(-c4ccc(Br)cc4)no3)o2)c1 | 1150 s

SMILES | RP-LC retention time
Cc1noc(C)c1CNC(=O)C(C)Oc1ccc(Cl)cc1 (stereo unspecified) | 811 s
CC(C)(C)C(=O)N1CCOC(c2ccccc2)C1 (stereo unspecified) | 831 s
Cc1ccc(C)c(S(=O)(=O)N2CCc3nc[nH]c3C2)c1 | 627 s
COc1ccc(NC(=O)Cn2c(C)cc(-c3nnc(-c4ccco4)o3)c2C)cc1Cl | 903 s
CC(=O)Nc1nc(-c2cccnc2)cs1 | 504 s
CCCCCOC(=O)c1ccc(Nc2nc(C(=O)OCC)nc3ccccc23)cc1 | 1160 s
NC(=O)c1cccc2ncc(-c3ccc(Cl)cc3)nc12 | 831 s
CCOc1ccc(NC(=O)Cn2c(=O)c(CCC(=O)NCC(C)C)nc3ccccc32)cc1 | 824 s
O=C(Nc1cc(F)ccc1F)NC1CCN(c2cc(N3CCCC3)cnn2)C1 (stereo unspecified) | 681 s
COc1ccccc1NC(=O)Cn1nc2cc(C)nc(-c3ccccc3)n2c1=O | 819 s
Cc1nn(C2CCS(=O)(=O)C2)c(C)c1N1CCN(S(=O)(=O)c2cccs2)CC1 (stereo unspecified) | 752 s
CS(=O)(=O)c1ccc(-c2ccc(NC(=O)c3cccs3)cc2)nn1 | 698 s
CSc1ccc(-c2nc3cnccn3c2Nc2ccc(C(=O)N3CCOCC3)cc2)cc1 | 708 s
CCOC(=O)c1cccc(NC(=O)Cn2c(C)nc3c(sc4nc(-c5ccccc5)ccc43)c2=O)c1 | 1090 s
COc1ccc(Cn2c(C(C)C)nc3sc4ccccc4c(=O)c3c2=O)cc1 | 975 s
Cc1ccc(C)c(-c2csc(Nc3ccc(Cl)cc3)n2)c1 | 1340 s
Cc1c(Cl)cccc1NC(=O)N1CCCC1c1nncn1-c1ccccc1 (stereo unspecified) | 738 s
CCn1cc(C(=O)Nc2cccc(C(C)=O)c2)c2nn(-c3ccccc3)c(=O)c-2c1 | 808 s
Cc1ccc(-c2cc3c4nnc(CCC(=O)N5CCN(C(=O)c6ccco6)CC5)n4ccn3n2)cc1C | 759 s
CCN1CCN(S(=O)(=O)c2ccc(Cl)c(C(F)(F)F)c2)CC1 | 569 s
CC(NC(=O)Cc1c(F)cccc1Cl)C(=O)N1CCN(c2ccccn2)CC1 (stereo unspecified) | 599 s
Cc1ccc(-c2nc3ncccn3c2Nc2c(C)cccc2C)cc1 | 820 s
Cc1noc(C)c1S(=O)(=O)N1CCC(CCOc2ccccc2)C1 (stereo unspecified) | 1080 s

SMILES | RP-LC retention time
COc1ccc2c(c1)C1(CCN(S(=O)(=O)c3ccc(C)cc3)C1)C(=O)N2C (stereo unspecified) | 929 s
Cc1ccc(N2C(=O)CCS2(=O)=O)cc1S(=O)(=O)N1CCC(C(N)=O)CC1 | 638 s
Cc1ccc(-n2cc(C3=CCN(CC(=O)N4CCN(c5ccccn5)CC4)CC3)cn2)cc1C | 596 s
O=C(Nc1cccc(F)c1)c1n[nH]nc1Nc1cccc(F)c1 | 1050 s
O=C(Nc1ccc(Br)cc1F)C1CCCN(C(=O)c2ccccc2F)C1 (stereo unspecified) | 943 s
CSc1ccc(-c2noc(CN3C(=O)C(C)Oc4ccccc43)n2)cc1 (stereo unspecified) | 1140 s
CN1CCN(Cc2nc(-c3ccc(N(C)Cc4ccccc4)nc3)no2)CC1 | 638 s
CCn1nc(C)c(CNC(=O)Nc2cccc(C(=O)OC)c2)c1C | 663 s
O=C(CN1C(=O)CCC1=O)NC1CCCC(OC(=O)Nc2ccc(F)cc2)C1 (stereo unspecified) | 674 s
CCOc1ccc(C2c3[nH]c4ccccc4c3CCN2C(=O)c2ccncc2)cc1 (stereo unspecified) | 948 s
CCN1C(=O)COc2cc(-c3noc(C(=O)NC4CCCCC4)n3)ccc21 | 996 s
CCOc1cc(=O)n2c(c1C(=O)Nc1cc(OC)ccc1OC)CCCC2 | 727 s
O=C(NCc1ccc(C(F)(F)F)cc1)C1CCN(c2nnc3ccc(Cl)cn23)CC1 | 718 s
Nc1ccccc1Sc1cc(Cl)nnc1Cl | 983 s
CC(=O)c1sc(NC(=O)c2cc(Cl)sc2Cl)nc1-c1ccccc1 | 1080 s
O=C(Nc1ccc(Cl)c([N+](=O)[O-])c1)Nc1nc2ccccc2s1 | 1050 s
CCCNC(=O)CC1Sc2ncccc2N(CCC)C1=O (stereo unspecified) | 683 s
Cc1nc(-c2ccc3c(c2)n(CC(=O)NC2CCCCCC2)c(=O)n3C(C)C)no1 | 841 s
COc1ccc(-c2csc(NCCc3ccc(OC)c(OC)c3)n2)cc1 | 792 s
COc1ccc(-c2noc(C3CC(=O)N(c4cc(C)cc(C)c4)C3)n2)c(OC)c1 (stereo unspecified) | 970 s
Cc1cccc(NC(=O)c2cc(C)n3nccc3n2)c1C | 995 s
O=C(c1ccc2c(=O)n3c(nc2c1)CCCC3)N1CCC(Cc2ccccc2)CC1 | 878 s
Cc1ccn(-c2ccc(N3CCN(C(=O)c4c(F)cccc4Cl)CC3)nn2)n1 | 752 s

SMILES | RP-LC retention time
CC(C)N1CCCC(Cn2cc(COc3ccc4c(c3)CCC4)nn2)C1 (stereo unspecified) | 667 s
Cn1nccc1-c1cccc(-c2noc(/C=C/c3ccccc3)n2)c1 | 1160 s
O=C(Nc1ncn[nH]1)C1CCC1 | 546 s
COc1ccc(NC(=O)c2cnc(N3CCC4(CC3)OCCO4)nc2N)cc1 | 635 s
Cc1ccc2[nH]c(C(=O)NC3CC3)cc2c1 | 782 s
Cc1ccc(NC(=O)Nc2ccc3nc(N4CCN(C)CC4)cc(C)c3c2)cc1Cl | 640 s
Cc1ccc(NC(=O)CN2CCC(C(=O)N3CCN(C(=O)c4ccco4)CC3)CC2)cc1 | 569 s
CCCn1c(CCNC(=O)c2c(F)cccc2F)nc2cccnc21 | 694 s
O=C(NCc1ccc2c(c1)OCO2)C1CCN(c2cc(N3CCCCC3)ncn2)CC1 | 715 s
O=C(NCc1ccccc1Cl)C(=O)NCC1CCN(C(=O)COc2ccccc2)CC1 | 566 s
COCCC(=O)N1CCCCC1c1nncn1Cc1ccccc1 (stereo unspecified) | 643 s
COc1ccc(Cl)cc1NC(=O)N1CCc2c(c(COc3ccccc3)nn2C)C1 | 988 s
CCc1cccc(C)c1Nc1c(-c2ccc(Cl)cc2)nc2cnccn12 | 1110 s
Cc1c(C(=O)O)nnn1Cc1cccc(C(F)(F)F)c1 | 744 s
Cc1ccnc(N2CCCC(C(=O)NC3CCCC3)C2)n1 (stereo unspecified) | 674 s
Cc1[nH]c(-c2ccc(Cl)cc2)cc1C(=O)N1CCC(C)CC1 | 1010 s
O=C(Cn1cnc2c(sc3nc(-c4ccccc4)ccc32)c1=O)Nc1ccc2c(c1)OCO2 | 974 s
COc1ccc(CN2CCc3nc(N4CCOCC4)ncc3C2)c(OC)c1 | 611 s
CCn1cc(-c2ccc(OC)cc2)cc1C(=O)N1CCCN(C)CC1 | 627 s
COc1ccc(N2CCN(C(=O)CC3CCN(C(=O)c4[nH]c(C)cc4C)CC3)CC2)cc1 | 739 s
COc1ccc(N2CCN(c3ccc4cc(S(=O)(=O)N5CCCCC5C)ccc4n3)CC2)cc1 (stereo unspecified) | 991 s
Cc1csc(-c2cc(S(=O)(=O)NCc3ccco3)c(C)n2C)n1 | 864 s
